Values after ≈ are worked out from the molar mass of the structure shown.
Assays:
L1210 = assay: Cytotoxicity against mouse L1210 cells; type: functional, cell-based
KB [1] = assay: Growth inhibition of human KB cells at 10 ug/ml; type: functional; conditions: read-out: GI
KB [2] = assay: Cytotoxicity against human KB cells; type: functional, cell-based

**Q.** With `CC1=C(CC/C(C)=C/CC/C(=C/C[C@H]2OC(=O)C=C2CO)CO)C(C)(C)CCC1` as the molecule, how does the IC50 (L1210) read?
**A.** 1.7 µg/mL (≈ 4.22 µM)

**Q.** What about the inhibition of growth at 10 µg/mL (KB [1]) of the same molecule?
**A.** 36.9%

**Q.** `CC1=C(CCC(C)(O)/C=C/C/C(=C/CC2OC(=O)C=C2CO)CO)C(C)(C)CCC1` (centres undefined) [LUFFARIOLIDE G] was tested. Which IC50 (L1210) did it give?
**A.** 2.8 µg/mL (≈ 6.69 µM)

**Q.** And the inhibition of growth at 10 µg/mL (KB [1])?
**A.** 30.8%

**Q.** What does the source list for `CC1=C(CC/C(C)=C/CC/C(C=O)=C\C[C@H]2OC(=O)C=C2CO)C(C)(C)CCC1`?
**A.** IC50 (L1210): 1 µg/mL (≈ 2.5 µM); IC50 (KB [2]): 5.6 µg/mL (≈ 14 µM)

**Q.** Which results are given for `CC1=C(CC/C(C)=C/CCC2=CC[C@H](C3=CC(=O)O[C@H]3O)O[C@H]2O)C(C)(C)CCC1` [MANOALIDE]?
**A.** IC50 (L1210): 0.032 µg/mL (≈ 0.0768 µM); IC50 (KB [2]): 0.31 µg/mL (≈ 0.744 µM)

**Q.** `CC(=O)OC/C(=C\C[C@H]1OC(=O)C=C1CO)CC/C=C(\C)CCC1=C(C)CCCC1(C)C` was tested. Which IC50 (L1210) did it give?
**A.** 3 µg/mL (≈ 6.75 µM)

**Q.** What about the inhibition of growth at 10 µg/mL (KB [1]) of the same molecule?
**A.** 44.8%

**Q.** For `CC1=C(CC/C(C)=C/CC/C(=C/CC2OC(=O)C=C2CO)CO)C(C)(C)CCC1O` (centres undefined) [LUFFARIOLIDE F], which IC50 (L1210) is on record?
**A.** 1.6 µg/mL (≈ 3.82 µM)

**Q.** And the inhibition of growth at 10 µg/mL (KB [1])?
**A.** 33.4%

**Q.** What does the source list for `CC1=C(CC/C(C)=C/CC/C(C=O)=C\C=C\C2=CC(=O)O[C@H]2O)C(C)(C)CCC1`?
**A.** IC50 (L1210): 0.45 µg/mL (≈ 1.13 µM); IC50 (KB [2]): 2.1 µg/mL (≈ 5.27 µM)

From ChEMBL document CHEMBL1147347, “Luffariolides F and G, new manoalide derivatives from the Okinawan marine sponge Luffariella sp” (J Nat Prod, 1993)
